Legend:
[1] = molecular target: T1, RXRα heterodimerization with RARγ (Homo sapiens, UniProt P19793); test: Co-immunoprecipitation of Myc-RXRα with FLAG-RARγ in HeLa cells; assay type: cell-based; conditions: 10 μM for 3 hr (FIG. 55)
T1 construct: expressed in transfected cells; host or cells: HeLa
T1 sequence (P19793 1-462): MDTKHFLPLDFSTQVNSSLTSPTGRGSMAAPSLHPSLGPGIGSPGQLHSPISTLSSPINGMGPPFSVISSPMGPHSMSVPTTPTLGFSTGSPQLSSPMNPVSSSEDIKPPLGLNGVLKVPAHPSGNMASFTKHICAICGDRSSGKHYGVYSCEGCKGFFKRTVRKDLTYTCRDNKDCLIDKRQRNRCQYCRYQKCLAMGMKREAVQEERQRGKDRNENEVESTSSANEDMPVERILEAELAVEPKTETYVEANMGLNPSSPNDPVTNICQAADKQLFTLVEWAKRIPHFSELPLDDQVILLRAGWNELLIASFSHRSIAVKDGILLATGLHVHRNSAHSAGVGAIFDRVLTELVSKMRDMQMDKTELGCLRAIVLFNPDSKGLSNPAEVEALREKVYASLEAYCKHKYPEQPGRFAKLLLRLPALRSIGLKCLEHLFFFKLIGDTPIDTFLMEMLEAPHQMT
T1 sequence (P13631 1-454 partner): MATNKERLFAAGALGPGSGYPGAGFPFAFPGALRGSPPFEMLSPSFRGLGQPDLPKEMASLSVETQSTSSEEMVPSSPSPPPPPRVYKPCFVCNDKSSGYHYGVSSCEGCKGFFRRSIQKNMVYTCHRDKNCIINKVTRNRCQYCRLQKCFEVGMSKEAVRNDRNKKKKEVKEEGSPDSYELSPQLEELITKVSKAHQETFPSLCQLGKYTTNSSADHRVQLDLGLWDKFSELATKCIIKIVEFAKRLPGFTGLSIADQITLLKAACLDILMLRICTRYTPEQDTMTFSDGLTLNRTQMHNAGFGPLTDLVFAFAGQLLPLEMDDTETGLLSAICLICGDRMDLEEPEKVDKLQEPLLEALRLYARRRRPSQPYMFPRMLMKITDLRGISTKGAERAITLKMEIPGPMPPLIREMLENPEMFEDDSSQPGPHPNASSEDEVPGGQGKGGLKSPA

HepG2 cells = test: Centrosome immunofluorescence in metaphase HepG2 cells; assay type: cell-based, human
Protocol: Cells mounted on glass slides were fixed with methanol at −20° C. for 10 min, then permeabilized with 0.05% Triton X-100 in a PBS buffer for 8 min at 4° C., and blocked with 1% bovine serum in PBS for 30 min at room temperature, followed by incubation with primary antibodies at room temperature for 3 hr and detected by FITC-labeled anti-IgG (1:200), anti-goat IgG conjugated with Cy3 (1:200) at room temperature for 1 hr. The cells were costained with 40,6-diamidino-2-phenylindole (DAPI) (1:10,000 dilution) to visualize nuclei. The images were taken under a LEICA TCS SP8 confocal laser scanning microscope system or an LSM-510 confocal laser scanning microscope system.

HeLa cells = test: Asynchronous or thymidine-synchronized HeLa cells incubated with compound A1; assay type: cell-based, human
Protocol: Cells were synchronized at GUS boundary by a double thymidine block. Briefly, cells cultured in a medium containing 2 mM thymidine for 16 hr were released into a normal medium for 8 hr, subjected to a second thymidine block for 16 hr, and then released into a fresh medium again. Alternatively, cells were synchronized at prometaphase by a thymidine-nocodazole arrest (an 18-hr thymidine arrest and a 5-hr release, followed by a 5-hr 100 ng/mL nocodazole arrest).

[2] = tested on: primary mouse liver tumor cells; test: Western blot analysis of primary mouse liver tumor cells; assay type: cell-based; conditions: 10 μM for 24 hr (FIG. 65)
Protocol: Briefly, a liver from a mouse was removed and washed in 1×PBS. The tumor tissue was resected from the liver and transferred to 5 mL PBS/2% FBS. The tumor tissue was minced with fine sterile scissors into fragments, followed by addition of 5 mL pre-warmed 2 mg/mL collagenase type IV/dispase. After incubated for 30 min at 37° C., the tumor cells were filtered through a 70 μm cell strainer and spined at 1,000 rpm for 5 min at 4° C. The pellet containing the liver tumor cells was then resuspended in 5 mL of 1×RBC lysis buffer and incubated on ice for 5 min. The tumor cells were spined and washed by 1×PBS/2% FBS for 2-3 times. Finally, the tumor cells were resuspended with DMEM (10% FBS, 40 ng/mL EGF, 0.008 ng/mL IGF-II) and plated in culture dishes that were pre-coated with collagen.

[3] = tested on: HepG2 liver cancer and THLE-2 nontumorous liver cells; test: Western blot analysis of HepG2 and THLE-2 cells; assay type: cell-based, human; conditions: 10 μM for 12 hr (FIG. 68)
QSG-7701 cells = test: Western blot analysis of QSG-7701 normal liver cells; assay type: cell-based, human; conditions: 12 hr (FIG. 61)

Structure (SMILES): COc1ccc(CC(=O)N/N=C/c2c(O)ccc3ccccc23)cc1 [Compound A1, (E)-N′-((2-hydroxynaphthalen-1-yl)methylene)-2-(4-methoxyphenyl)acetohydrazide]
- RXRα heterodimerization with RARγ (CoIP) [1]: no effect
- centrosomal aberrations (HepG2 cells): caused centrosomal aberrations
- level of PLK1-pT210 at the centrosome (HepG2 cells; HepG2 cells, 10 μM for 2 hr after release from TT block for 10 hr (FIG. 57)): reduced the level of PLK1-pT210
- centrosome maturation (γ-tubulin at the centrosomes) (HepG2 cells; HepG2 cells, 10 μM for 2 hr after release from TT block for 10 hr (FIG. 58)): suppressed centrosome maturation
- effectiveness in asynchronous versus synchronized cells (HeLa cells; HeLa cells, 10 μM for 24 hr (FIG. 64)): more effective in asynchronous cells (AS) than in synchronized GUS cells
- cell cycle progression and fate of synchronized HeLa cells upon treatment (HeLa cells; synchronized HeLa cells): progressed through S phase normally and arrested in mitotic phase, which was followed by apoptosis
- G2/M arrest, DNA damage response, and apoptosis ([2]; primary liver cancer cells): induced G2/M arrest, DNA damage response, and apoptosis
- induction of mitotic arrest and apoptosis ([2]; primary mouse liver tumor cells): observed
- inducing G2/M arrest, SAC activation, and apoptosis in HepG2 versus THLE-2 cells [3]: differential effects
- effect in p-RXRα-negative noncancerous QSG-7701 cells (QSG-7701 cells): but not p-RXRα-negative noncancerous QSG-7701 cells
